Assay results taken from US20080063719A1, “Pharmaceutical Compositions” (Vectura Limited, priority 2004, published 2008).

Tests used:
Format in all cases: physicochemical
[1] = Sympatec sizing of micronised glycopyrrolate batches, after micronisation and on storage; settings: for Sympatec sizing d10 / Sympatec sizing d50 / Sympatec sizing d90: following micronisation
Excerpt: (§1) Batches of micronised glycopyrrolate were obtained and, following sealed storage for several weeks, the physical changes of the material from fine cohesive powders to solid agglomerates were observed.
(§2) The following section summarises the tests conducted on reported batches of glycopyrrolate received following micronisation: […]

[2] = Loss on drying and water activity of micronised batches
Excerpt: as §2

[3] = DVS (dynamic vapour sorption) moisture sorption analysis
Excerpt: 100% amorphous glycopyrrolate was obtained by lyophilisation.

[4] = Observation of bulk powder after sealed storage; settings: sealed storage for several weeks
Excerpt: as §1, §2

[5] = Particle sizing of micronised and conditioned glycopyrrolate batches, Example 7; settings: micronised drug powder
Procedure: (§3) The effect of conditioning on micronised glycopyrrolate was investigated. An initial batch of glycopyrrolate ‘A’ was micronised at 9.8 bar with feed rate of 0.2 kg/hour. This material was then conditioned on a tray at 25° C./60% RH, with or without agitation/turning. Each of these powders was sized by Sympatec. The powders were then formulated using the method outlined in Example 4, as 20 μg dose in 25 mg powder with 0.15% magnesium stearate and loaded into gelatin capsules. The fine particle fraction was assessed by firing the capsules from a Miat MonoHaler device into a multi stage liquid impinger, using the method defined in the European Pharmacopoeia 4th Edition 2002. The fine particle fraction was defined here as the mass fraction smaller than 5 μm relative to the nominal dose.
as §3, with “A second” for “The effect of conditioning on micronised glycopyrrolate was investigated. An initial”, “‘B’” for “‘A’”, “0.3” for “0.2”, “powder” for “material was then conditioned on a tray at 25° C./60% RH, with or without agitation/turning. Each of these powders”, “powder was” for “powders were”
as §3, with “A third” for “The effect of conditioning on micronised glycopyrrolate was investigated. An initial”, “glycopyrtolate ‘C’” for “glycopyrrolate ‘A’”, “0.4” for “0.2”
as §3, with “A fourth” for “The effect of conditioning on micronised glycopyrrolate was investigated. An initial”, “‘D’” for “‘A’”, “8.8” for “9.8”, “0.4” for “0.2”, “powder” for “material was then conditioned on a tray at 25° C./60% RH, with or without agitation/turning. Each of these powders”, “powder was” for “powders were”
as §3, with “A fifth” for “The effect of conditioning on micronised glycopyrrolate was investigated. An initial”, “‘E’” for “‘A’”, “7.8” for “9.8”, “0.4” for “0.2”
(§4) Batches A1, C1 and E1 were not conditioned. Batches A2, C2 and E2 were conditioned at 25° C./60% RH and batches A3, C3 and E3 were conditioned at 25° C./60% RH with turning.

[6] = MSLI test of formulations made from micronisation trial batches, Example 7; settings: 20 μg dose in 25 mg powder, 0.15% magnesium stearate, gelatin capsules
Procedure: as §3
as §3, with “A second” for “The effect of conditioning on micronised glycopyrrolate was investigated. An initial”, “‘B’” for “‘A’”, “0.3” for “0.2”, “powder” for “material was then conditioned on a tray at 25° C./60% RH, with or without agitation/turning. Each of these powders”, “powder was” for “powders were”
as §3, with “A third” for “The effect of conditioning on micronised glycopyrrolate was investigated. An initial”, “glycopyrtolate ‘C’” for “glycopyrrolate ‘A’”, “0.4” for “0.2”
as §3, with “A fourth” for “The effect of conditioning on micronised glycopyrrolate was investigated. An initial”, “‘D’” for “‘A’”, “8.8” for “9.8”, “0.4” for “0.2”, “powder” for “material was then conditioned on a tray at 25° C./60% RH, with or without agitation/turning. Each of these powders”, “powder was” for “powders were”
as §3, with “A fifth” for “The effect of conditioning on micronised glycopyrrolate was investigated. An initial”, “‘E’” for “‘A’”, “7.8” for “9.8”, “0.4” for “0.2”
as §4

Row | SMILES | Sympatec sizing d10 [1] [μm] | Sympatec sizing d50 [1] [μm] | Sympatec sizing d90 [1] [μm] | Loss on drying [2] [%] | DVS finding (crystalline or amorphous material) [3] | state of bulk powder on storage [4] | Water activity [2] [% RH] | d50 on repeated particle sizing ([1]; on storage) [μm] | D10 [5] [μm] | D50 [5] [μm] | D90 [5] [μm] | % FPD ([6]; T = 0) [%] | MMAD ([6]; T = 0) [μm] | % FPD ([6]; T = 2 wks) [%] | MMAD ([6]; T = 2 wks) [μm] | hygroscopicity ([3]; obtained by lyophilisation, confirmed by DVS at RH>0%)
1 | C[N+]1(C)CCC(OC(=O)C(O)(c2ccccc2)C2CCCC2)C1.[Br-] (stereo not drawn) [Batch A] | 0.7 | 1.8 | 3.6 | 0.7 | crystalline material | soft lumps | – | – | – | – | – | – | – | – | – | –
2 | C[N+]1(C)CCC(OC(=O)C(O)(c2ccccc2)C2CCCC2)C1.[Br-] (stereo not drawn) [Batch B] | 1.0 | 2.4 | 4.8 | 0.6 | amorphous material was present | large hard lumps | 54 | – | – | – | – | – | – | – | – | –
3 | C[N+]1(C)CCC(OC(=O)C(O)(c2ccccc2)C2CCCC2)C1.[Br-] (stereo not drawn) [Batch C] | 0.8 | 2.3 | 4.8 | 0.4 | amorphous material was present | large hard lumps | – | 51 | – | – | – | – | – | – | – | –
4 | C[N+]1(C)CCC(OC(=O)C(O)(c2ccccc2)C2CCCC2)C1.[Br-] (stereo not drawn) [Formulation A1] | – | – | – | – | – | – | – | – | 0.81 | 1.95 | 3.68 | 34.7 | 2.8 | 30.5 | 3.2 | –
5 | C[N+]1(C)CCC(OC(=O)C(O)(c2ccccc2)C2CCCC2)C1.[Br-] (stereo not drawn) [Formulation A2] | – | – | – | – | – | – | – | – | 1.22 | 3.89 | 10.02 | – | – | – | – | –
6 | C[N+]1(C)CCC(OC(=O)C(O)(c2ccccc2)C2CCCC2)C1.[Br-] (stereo not drawn) [Formulation A3] | – | – | – | – | – | – | – | – | 1.24 | 4.03 | 9.78 | 34.5 | 2.8 | 31.5 | 3.1 | –
7 | C[N+]1(C)CCC(OC(=O)C(O)(c2ccccc2)C2CCCC2)C1.[Br-] (stereo not drawn) [Formulation C1] | – | – | – | – | – | – | – | – | 0.95 | 2.41 | 4.83 | 39.9 | 3.9 | 35.5 | 4.0 | –
8 | C[N+]1(C)CCC(OC(=O)C(O)(c2ccccc2)C2CCCC2)C1.[Br-] (stereo not drawn) [Formulation C2] | – | – | – | – | – | – | – | – | 1.24 | 3.76 | 7.84 | 39.2 | 3.3 | 34.0 | 3.6 | –
9 | C[N+]1(C)CCC(OC(=O)C(O)(c2ccccc2)C2CCCC2)C1.[Br-] (stereo not drawn) [Formulation C3] | – | – | – | – | – | – | – | – | 1.24 | 3.97 | 8.23 | 39.9 | 3.2 | 37.9 | 3.4 | –
10 | C[N+]1(C)CCC(OC(=O)C(O)(c2ccccc2)C2CCCC2)C1.[Br-] (stereo not drawn) [Formulation E1] | – | – | – | – | – | – | – | – | 1.01 | 2.47 | 4.88 | 39.9 | 3.3 | 33.3 | 3.4 | –
11 | C[N+]1(C)CCC(OC(=O)C(O)(c2ccccc2)C2CCCC2)C1.[Br-] (stereo not drawn) [Formulation E2] | – | – | – | – | – | – | – | – | 1.28 | 3.61 | 7.08 | – | – | – | – | –
12 | C[N+]1(C)CCC(OC(=O)C(O)(c2ccccc2)C2CCCC2)C1.[Br-] (stereo not drawn) [Formulation E3] | – | – | – | – | – | – | – | – | 1.23 | 3.79 | 7.85 | 38.7 | 3.2 | 32.7 | 3.7 | –
13 | C[N+]1(C)CCC(OC(=O)C(O)(c2ccccc2)C2CCCC2)C1.[Br-] (stereo not drawn) [Remicronised Batch C] | 1.0 | 2.4 | 4.5 | 0.5 | – | only soft lumps | – | – | – | – | – | – | – | – | – | –
14 | C[N+]1(C)CCC(OC(=O)C(O)(c2ccccc2)C2CCCC2)C1.[Br-] (stereo not drawn) [amorphous glycopyrrolate] | – | – | – | – | – | – | – | – | – | – | – | – | – | – | – | very hygroscopic
